The values below are quoted from earlier work in US6231888A, “Local delivery of non steroidal anti inflammatory drugs (NSAIDS) to the colon as a treatment for colonic polyps” (Perio Products Ltd., priority 1998, dated 2001).

One series deals with colorectal cancer. The settings on record: chronic use.
The subject of a further series is colonic biopsies. The settings on record: diclofenac-induced colitis.
Series [1] has as its system HT-29 colon adenocarcinoma cells. To be noted: HT-29 cells.
For series [2], the system named is SW480 colon carcinoma cells.
Another series deals with colonic polyps. The settings on record: daily dose of 300 mg, taken systemically.
Series [3] deals with sporadic colorectal adenomas. To be noted: 300 mg or 150 mg daily for one year; polyps 4-12 mm.
Series [4] has as its system HT-29 colon adenocarcinoma cell line.
For a further series, the system named is colorectal mucosa. The settings on record: FAP patients.

`Cc1cnc(NC(=O)C2=C(O)c3ccccc3S(=O)(=O)N2C)s1` [Meloxicam]: the COX-2 inhibition result with COX-2 was “selective COX-2 inhibitor”.
In the case of `CC(=O)Oc1ccccc1C(=O)O` [aspirin], the “Reduction in the incidence of colorectal cancer” value in the series with colorectal cancer was 50-70%.
Regarding `O=C(O)Cc1ccccc1Nc1c(Cl)cccc1Cl` [diclofenac], the “Apoptotic bodies in colonic biopsies” value with colonic biopsies is reported as “increased levels of apoptotic bodies”.
As for `CN1C(C(=O)Nc2ccccn2)=C(O)c2ccccc2S1(=O)=O` [piroxicam], the COX-2 inhibition result in the series with COX-2 is “strong inhibitory effect on COX-2”.
On to `CSc1ccc(/C=C2/C(C)=C(CC(=O)O)c3cc(F)ccc32)cc1` [sulindac sulfide], for which the “Potency in reducing proliferation and inhibiting the cell cycle vs sulindac” value in series [1] is given as “six times more potent than sulindac”. The COX-2 inhibition result with COX-2 is recorded as “potent inhibitor of COX-2”. In addition, the Cell cycle inhibition result in [2] is reported as “induced cell cycle inhibition”. Moreover, the “Time within which plasma concentration exceeds that of sulindac” value (in vivo, po) is listed as “four”.
For `CC1=C(CC(=O)O)c2cc(F)ccc2/C1=C\c1ccc([S+](C)[O-])cc1` (stereo not shown) [sulindac], the COX-1 inhibition entry in the series with COX-1 is recorded as “mainly exerts an inhibitory effect on COX-1”. For the same compound, the COX-2 inhibition entry in the series on COX-2 is listed as “weak inhibitor of COX-2”. Besides, the “Regression of adenomatous polyps” value with sporadic colonic polyps was “no similar regression of adenomatous polyps”. For the same compound, the “Number and size of colonic polyps” value in the series on colonic polyps is listed as “significantly decreased”. Also, the “Reduction product formed by colonic microflora” value in the series on colonic microflora is recorded as “exclusively to sulindac sulfide”. In addition, the “Regression/progression of sporadic colorectal adenomas” value in series [3] was “induced regressions and prevented the progression of sporadic colorectal adenomas”. In series [4], the Apoptosis result is “induction of apoptosis” and the “Cell proliferation or differentiation” value is given as “no evidence of cell proliferation or differentiation”. Moreover, in the series with colorectal mucosa, the Colonic mucosal apoptosis result was “increased levels of colonic mucosal apoptosis” and the Proliferation entry is “No effects on proliferation”. The “Time of peak plasma concentration” value (oral tablet) was “about two”.
